Active and inactive are the calls of the source. The calls are words filed in the database; no cut-off is given here.
Key:
[1] = tested on: Enterococcus faecalis; assay: Antibacterial activity against Enterococcus faecalis ATCC 29212 = CCM 4224 assessed as inhibition of bacterial growth incubated for 24 hrs by microdilution assay; assay type: functional
[2] = Toxicity in human cornea epidermis model assessed as eye irritation incubated for 42 hrs; assay type: tissue-based
[3] = tested on: Staphylococcus aureus; assay: Antibacterial activity against wild type Staphylococcus aureus 4679/B assessed as reduction in microbial growth incubated for 24 hrs by microdilution assay; assay type: functional
[4] = tested on: Staphylococcus aureus; assay: Antibacterial activity against wild type Staphylococcus aureus 4883/C assessed as reduction in microbial growth incubated for 24 hrs by microdilution assay; assay type: functional
[5] = tested on: Staphylococcus aureus; assay: Antibacterial activity against wild type Staphylococcus aureus 77/CF assessed as reduction in microbial growth incubated for 24 hrs by microdilution assay; assay type: functional
[6] = tested on: Staphylococcus aureus; assay: Antibacterial activity against wild type Staphylococcus aureus 78/CF assessed as reduction in microbial growth incubated for 24 hrs by microdilution assay; assay type: functional
[7] = tested on: Escherichia coli; assay: Antibacterial activity against Escherichia coli ATCC 25922 = CCM 3954 assessed as inhibition of bacterial growth incubated for 24 hrs in presence of BSA by microdilution assay; assay type: functional
[8] = Toxicity in human cornea epidermis model assessed as tissue viability pretreated for 1 hr and measured after 42 hrs by MTT assay relative to control; assay type: tissue-based; details: read-out: Activity
[9] = tested on: Escherichia coli; assay: Antibacterial activity against multidrug-resistant Escherichia coli CE5556 expressing CTX-M-15 assessed as reduction in microbial growth incubated for 24 hrs by microdilution assay; assay type: functional
[10] = tested on: Pseudomonas aeruginosa; assay: Antibacterial activity against multidrug-resistant Pseudomonas aeruginosa assessed as reduction in microbial growth incubated for 24 hrs by microdilution assay; assay type: functional
[11] = tested on: Cell membrane; assay: Induction of cell envelope damage in Staphylococcus aureus assessed as membranous nanotubes extrude from dying/dead cells at 8 mg/L measured after 8 hrs by scanning electron microscope analysis
[12] = tested on: Cell membrane; assay: Induction of cell envelope damage in Staphylococcus aureus assessed as loss of cytoplasmic content at 8 mg/L measured after 8 hrs by scanning electron microscope analysis; assay type: subcellular
[13] = tested on: Staphylococcus aureus; assay: Antibacterial activity against wild type Staphylococcus aureus 4515/A assessed as reduction in microbial growth incubated for 24 hrs by microdilution assay; assay type: functional
[14] = tested on: Staphylococcus aureus; assay: Antibacterial activity against wild type Staphylococcus aureus 4482/A assessed as reduction in microbial growth incubated for 24 hrs by microdilution assay; assay type: functional
[15] = tested on: Staphylococcus aureus; assay: Antibacterial activity against […] Staphylococcus aureus 4461/A assessed as reduction in microbial growth incubated for 24 hrs by microdilution assay; assay type: functional
[16] = Toxicity in rabbit assessed as maximum tolerated dose administered orally; set-up: species or system Oryctolagus cuniculus; details: in vivo, route po
[17] = Toxicity in rabbit assessed as eye irritation at 100 mg/L measured at 1 to 168 hrs; set-up: species or system Oryctolagus cuniculus; details: in vivo, topical_or_ocular, time 1-168 hrs
[18] = Toxicity in rabbit assessed as skin irritation at 100 to 200 mg/L after administration bandaged for 4 hrs and measured after 1 to 72 hrs of contact time; set-up: species or system Oryctolagus cuniculus; details: in vivo, topical_or_ocular, dose lower 100 mg/L, time lower 1 hrs, dose upper 200 mg/L, time upper 76 hrs
[19] = tested on: Staphylococcus aureus; assay: Antibacterial activity against wild type Staphylococcus aureus 4504/A assessed as reduction in microbial growth incubated for 24 hrs by microdilution assay; assay type: functional
[20] = tested on: Staphylococcus aureus; assay: Antibacterial activity against wild type Staphylococcus aureus 4738/B assessed as reduction in microbial growth incubated for 24 hrs by microdilution assay; assay type: functional
[21] = Hemolytic activity in human RBC assessed as haemoglobin release measured after 3 hr; assay type: toxicity, cell-based, Erythrocyte; details: red blood cells (erythrocytes)
[22] = tested on: Staphylococcus aureus; assay: Antibacterial activity against wild type Staphylococcus aureus 4904/C assessed as reduction in microbial growth incubated for 24 hrs by microdilution assay; assay type: functional
[23] = tested on: Pseudomonas aeruginosa; assay: Antibacterial activity against Pseudomonas aeruginosa ATCC 27853 = CCM 3955 assessed as inhibition of bacterial growth incubated for 24 hrs by microdilution assay; assay type: functional
[24] = tested on: Staphylococcus aureus; assay: Antibacterial activity against wild type Staphylococcus aureus 4788/B assessed as reduction in microbial growth incubated for 24 hrs by microdilution assay; assay type: functional
[25] = tested on: Staphylococcus aureus; assay: Antibacterial activity against wild type Staphylococcus aureus 5079/C assessed as reduction in microbial growth incubated for 24 hrs by microdilution assay; assay type: functional
[26] = tested on: Staphylococcus aureus; assay: microbe, parasite or virus in culture; details: 4862/C, 24 h
Description: Antibacterial activity against wild type Staphylococcus aureus 4862/C assessed as reduction in microbial growth incubated for 24 hrs by microdilution assay

[27] = Cytotoxicity against human HepG2 cells assessed as reduction in cell viability; assay type: toxicity, cell-based
[28] = tested on: Staphylococcus aureus; assay: Antibacterial activity against Staphylococcus aureus ATCC 29213 = CCM 4223 assessed as inhibition of bacterial growth incubated for 24 hrs by microdilution assay; assay type: functional
[29] = tested on: Staphylococcus aureus; assay: Antibacterial activity against wild type Staphylococcus aureus 4502/A assessed as reduction in microbial growth incubated for 24 hrs by microdilution assay; assay type: functional
[30] = tested on: Staphylococcus aureus; assay: Antibacterial activity against wild type Staphylococcus aureus 4561/A assessed as reduction in microbial growth incubated for 24 hrs by microdilution assay; assay type: functional
[31] = tested on: Cell membrane; assay: Induction of cell envelope damage in Staphylococcus aureus assessed as tubular structure at 8 mg/L measured after 8 hrs by scanning electron microscope analysis
[32] = tested on: Cell membrane; assay: Induction of cell envelope damage in Staphylococcus aureus assessed as loss of cell integrity at 8 mg/L measured after 8 hrs by scanning electron microscope analysis; assay type: subcellular
[33] = Toxicity in human epidermis model assessed as skin irritation incubated for 42 hrs; assay type: tissue-based
[34] = Gradient chromatographic hydrophobicity index of the compound at pH 3.7 by HPLC analysis; assay type: ADME
[35] = tested on: Staphylococcus aureus; assay: Antibacterial activity against methicillin resistant Staphylococcus aureus 4591/A assessed as reduction in microbial growth incubated for 24 hrs by microdilution assay; assay type: functional
[36] = tested on: Staphylococcus aureus; assay: Antibacterial activity against wild type Staphylococcus aureus 4557/A assessed as reduction in microbial growth incubated for 24 hrs by microdilution assay; assay type: functional
[37] = tested on: Escherichia coli; assay: Bactericidal activity against Escherichia coli CCM 3954 assessed as reduction in viable cell count measured after 24 hrs by Time kill assay; assay type: functional, organism-based; details: dose 2-8 mg/L, DDE = dose-dependent effect
[38] = tested on: Staphylococcus aureus; assay: Antibacterial activity against wild type Staphylococcus aureus 4740/B assessed as reduction in microbial growth incubated for 24 hrs by microdilution assay; assay type: functional
[39] = tested on: Staphylococcus aureus; assay: Antibacterial activity against wild type Staphylococcus aureus 4566/A assessed as reduction in microbial growth incubated for 24 hrs by microdilution assay; assay type: functional
[40] = tested on: Enterococcus faecium; assay: Antibacterial activity against vancomycin resistant Enterococcus faecium 419/ANA assessed as reduction in microbial growth incubated for 24 hrs by microdilution assay; assay type: functional
[41] = tested on: Escherichia coli; assay: Antibacterial activity against Escherichia coli ATCC 25922 = CCM 3954 assessed as inhibition of bacterial growth incubated for 24 hrs by microdilution assay; assay type: functional
[42] = tested on: Staphylococcus aureus; assay: microbe, parasite or virus in culture; details: 4880/C, 24 h
Description: Antibacterial activity against wild type Staphylococcus aureus 4880/C assessed as reduction in microbial growth incubated for 24 hrs by microdilution assay

[43] = tested on: Staphylococcus epidermidis; assay: Antibacterial activity against Staphylococcus epidermidis CCM 7221 assessed as inhibition of bacterial growth incubated for 24 hrs by microdilution assay; assay type: functional
[44] = tested on: Staphylococcus aureus; assay: Antibacterial activity against wild type Staphylococcus aureus 4968/C assessed as reduction in microbial growth incubated for 24 hrs by microdilution assay; assay type: functional
[45] = tested on: Staphylococcus aureus; assay: microbe, parasite or virus in culture; details: 5017/C, 24 h
Description: Antibacterial activity against wild type Staphylococcus aureus 5017/C assessed as reduction in microbial growth incubated for 24 hrs by microdilution assay

[46] = Toxicity in rabbit assessed as maximum tolerated dose administered subcutaneously; set-up: species or system Oryctolagus cuniculus; details: in vivo, route sc
[47] = tested on: Staphylococcus aureus; assay: Antibacterial activity against Staphylococcus aureus ATCC 29213 = CCM 4223 assessed as inhibition of bacterial growth incubated for 24 hrs in presence of BSA by microdilution assay; assay type: functional
[48] = tested on: Staphylococcus aureus; assay: Antibacterial activity against wild type Staphylococcus aureus 4717/B assessed as reduction in microbial growth incubated for 24 hrs by microdilution assay; assay type: functional
[49] = tested on: Staphylococcus aureus; assay: Antibacterial activity against […] Staphylococcus aureus 4463/A assessed as reduction in microbial growth incubated for 24 hrs by microdilution assay; assay type: functional
[50] = tested on: Staphylococcus aureus; assay: Antibacterial activity against […] Staphylococcus aureus 4460/A assessed as reduction in microbial growth incubated for 24 hrs by microdilution assay; assay type: functional
[51] = tested on: Staphylococcus aureus; assay: Bactericidal activity against Staphylococcus aureus CCM 4223 assessed as reduction in viable cell count measured after 24 hrs by Time kill assay; assay type: functional, organism-based; details: DDE = dose-dependent effect
[52] = tested on: Cell membrane; assay: Induction of membrane permeabilization in Escherichia coli CCM 3954 assessed as propidium iodide influx measured after 80 mins by spectrofluorometer method; details: dose 2.5-5 mg/L, DDE = dose-dependent effect
[53] = tested on: Lipid bilayer; assay: Induction of membrane disruption of bacterial inner membrane mimic DOPE/DOPG (2:1) large unilamellar vesicles assessed as carboxyfluorescein leakage at 2.5 mg/L measured after 90 mins by spectrofluorometer analysis
[54] = tested on: Cell membrane; assay: Induction of plasma membrane depolarization in Escherichia coli CCM 3954 assessed as increase in fluorescence intensity at 2.5 mg/L measured after 80 seconds by DiSC3-5 dye based spectrofluorometer method; assay type: cell membranes; details: time 80.0 sec
[55] = tested on: Lipid bilayer; assay: Induction of membrane disruption of […] membrane mimic DOPC/DOPE (2:1) large unilamellar vesicles assessed as carboxyfluorescein leakage at 2.5 mg/L measured after 90 mins by spectrofluorometer analysis

CCCCCCCCOP(=O)(CCN(CCCN)CCCN)OCCCCOP(=O)(CCN(CCCN)CCCN)OCCCCCCCC.Cl.Cl.Cl.Cl.Cl.Cl (stereo not drawn)
MIC [1]: 4 µg/mL | Activity [2]: Non-Toxic | MIC [3]: 2 µg/mL | MIC [4]: 1 µg/mL | MIC [5]: 2 µg/mL | MIC [6]: 2 µg/mL | MIC [7]: 1 µg/mL | viability at 42 h [8]: > 60% | MIC [9]: 2 µg/mL | MIC [10]: 4 µg/mL | Activity [11]: Active | Activity [12]: Active | MIC [13]: 1 µg/mL | MIC [14]: 1 µg/mL | MIC [15]: 2 µg/mL | MTD [16]: > 200 mg/kg | Activity [17]: Non-Toxic | Activity [18]: Non-Toxic | MIC [19]: 2 µg/mL | MIC [20]: 1 µg/mL | HC50 at 3 h [21]: 263 µg/mL | MIC [22]: 1 µg/mL | MIC [23]: 4 µg/mL | MIC [24]: 1 µg/mL | MIC [25]: 1 µg/mL | MIC [26]: 1 µg/mL | CC50 [27]: 95.9 µM | MIC [28]: 2 µg/mL | MIC [29]: 2 µg/mL | MIC [30]: 2 µg/mL | Activity [31]: Active | Activity [32]: Active | Activity [33]: Non-Toxic | CHI [34]: 35.3 | MIC [35]: 2 µg/mL | MIC [36]: 1 µg/mL | Activity [37]: Dde | MIC [38]: 1 µg/mL | MIC [39]: 1 µg/mL | MIC [40]: 64 µg/mL | MIC [41]: 2 µg/mL | MIC [42]: 1 µg/mL | MIC [43]: 1 µg/mL | MIC [44]: 2 µg/mL | MIC [45]: 1 µg/mL | MTD [46]: > 15 mg/kg | MIC [47]: 2 µg/mL | MIC [48]: 1 µg/mL | MIC [49]: 2 µg/mL | MIC [50]: 1 µg/mL | Activity [51]: Dde

CCCCCCCCOP(=O)(CCN(CCCN)CCCN)OCCCCCCCCCCOP(=O)(CCN(CCCN)CCCN)OCCCCCCCC.Cl.Cl.Cl.Cl.Cl.Cl (stereo not drawn)
MIC [1]: 0.5 µg/mL | Activity [52]: Dde | MIC [7]: 0.5 µg/mL | MIC [9]: 1 µg/mL | MIC [10]: 1 µg/mL | HC50 at 3 h [21]: 6.4 µg/mL | MIC [23]: 1 µg/mL | MIC [28]: 0.5 µg/mL | CHI [34]: 40.6 | MIC [35]: 3 µg/mL | Activity [53]: Active | MIC [40]: 1 µg/mL | Activity [54]: Active | MIC [41]: 0.5 µg/mL | MIC [43]: 0.5 µg/mL | MIC [47]: 0.125 µg/mL | Activity [55]: Active

— ChEMBL document CHEMBL5120927, “LEGO-Lipophosphonoxins: A Novel Approach in Designing Membrane Targeting Antimicrobials” (J Med Chem, 2022)
